From patent publication US20060111409A1, “Medicament for treatment of diabetes” (priority 2002, published 2006)

**Q.** With `CC(=O)Oc1ccccc1C(=O)Nc1cc(Cl)cc(Cl)c1` as the compound, how does the melting point read?
**A.** 218 to 219 °C
